Test results as given in patent US20250122218A1, “MODULATORS OF CYSTIC FIBROSIS TRANSMEMBRANE CONDUCTANCE REGULATOR” (Vertex Pharmaceuticals Incorporated, priority 2022, published 2025).

target: T1, CFTR in F508del/MF-HBE cells (Homo sapiens, UniProt P13569, DEL508-508); assay: Ussing chamber assay of CFTR-mediated short-circuit currents (identification of potentiator compounds); format: cell-based; settings: potentiator incubated 18-24 hours at 37° C. in combination with 10 μM corrector, in the presence of 20% human serum, CFTR-mediated ISC
T1 construct: human bronchial epithelial (HBE) cells derived from CF subjects heterozygous for F508del and a minimal function CFTR mutation; endogenous in cells; host or cells: primary human bronchial epithelial cells from CF subjects (F508del/MF-HBE)
T1 sequence (P13569 with tags, fused parts or gaps DEL508-508): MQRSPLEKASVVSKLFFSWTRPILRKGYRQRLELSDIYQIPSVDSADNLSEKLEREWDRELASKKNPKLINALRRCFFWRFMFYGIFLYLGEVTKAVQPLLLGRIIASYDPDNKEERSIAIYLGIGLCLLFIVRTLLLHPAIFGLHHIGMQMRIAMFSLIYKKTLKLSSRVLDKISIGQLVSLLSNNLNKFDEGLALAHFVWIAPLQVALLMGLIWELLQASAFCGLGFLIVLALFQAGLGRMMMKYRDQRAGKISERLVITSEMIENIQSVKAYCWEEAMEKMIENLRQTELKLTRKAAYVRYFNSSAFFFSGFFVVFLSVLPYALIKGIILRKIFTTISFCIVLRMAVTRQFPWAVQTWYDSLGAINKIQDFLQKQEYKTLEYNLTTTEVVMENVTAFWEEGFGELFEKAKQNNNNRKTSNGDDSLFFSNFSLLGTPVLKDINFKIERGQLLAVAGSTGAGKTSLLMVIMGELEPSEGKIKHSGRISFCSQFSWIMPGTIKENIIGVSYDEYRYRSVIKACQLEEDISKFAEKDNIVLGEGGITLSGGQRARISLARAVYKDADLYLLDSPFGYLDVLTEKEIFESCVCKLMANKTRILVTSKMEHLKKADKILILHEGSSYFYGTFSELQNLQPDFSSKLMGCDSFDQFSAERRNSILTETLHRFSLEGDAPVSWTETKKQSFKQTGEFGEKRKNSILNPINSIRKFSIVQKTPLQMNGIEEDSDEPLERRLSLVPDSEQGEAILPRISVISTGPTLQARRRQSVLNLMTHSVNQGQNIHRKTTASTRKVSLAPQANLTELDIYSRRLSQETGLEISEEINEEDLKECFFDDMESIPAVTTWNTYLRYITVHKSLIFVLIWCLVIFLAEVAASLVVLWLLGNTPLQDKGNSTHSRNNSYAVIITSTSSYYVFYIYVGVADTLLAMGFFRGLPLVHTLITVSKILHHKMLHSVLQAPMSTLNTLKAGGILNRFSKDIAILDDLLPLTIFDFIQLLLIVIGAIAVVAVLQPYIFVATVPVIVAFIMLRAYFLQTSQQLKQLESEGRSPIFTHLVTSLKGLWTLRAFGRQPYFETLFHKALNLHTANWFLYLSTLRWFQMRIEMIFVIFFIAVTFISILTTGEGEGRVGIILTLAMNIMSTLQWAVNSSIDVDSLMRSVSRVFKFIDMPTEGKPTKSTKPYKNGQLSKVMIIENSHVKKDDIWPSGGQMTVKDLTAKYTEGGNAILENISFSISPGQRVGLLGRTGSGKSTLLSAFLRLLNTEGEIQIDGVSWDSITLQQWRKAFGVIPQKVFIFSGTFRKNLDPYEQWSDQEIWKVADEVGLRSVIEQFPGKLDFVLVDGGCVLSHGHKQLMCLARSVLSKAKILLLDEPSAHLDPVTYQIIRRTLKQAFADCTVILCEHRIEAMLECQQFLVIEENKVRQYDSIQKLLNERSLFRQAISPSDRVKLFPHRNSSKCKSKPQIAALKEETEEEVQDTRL
Procedure, shortened: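 F508del/MF-HBE cultures were preincubated 18-24 h at 37° C with potentiator plus 10 μM of a fixed corrector compound in 20% human serum; compounds were kept present during measurement. ISC was recorded under voltage clamp (0 mV, 37° C, amiloride apical) and taken as the 20 μM forskolin peak minus the current after inhibitor cocktail.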

`CC(C)(C)c1cccc(CN2CCCCC[C@](O)(C(F)(F)F)C3=NN=C(O3)c3nc(c(C(F)(F)F)cc3N)C2=O)c1` [Compound 221, (6R)-17-amino-12-[(3-tert-butylphenyl)methyl]-6-hydroxy-6,15-bis(trifluoromethyl)-19-oxa-3,4,12,18-tetrazatricyclo [12.3.1.12,5] nonadeca-1(18),2,4,14,16-pentaen-13-one] and `CC(C)(O)c1cccc(CN2CCCCC[C@](O)(C(F)(F)F)C3=NN=C(O3)c3nc(c(C(F)(F)F)cc3N)C2=O)c1` [Compound 244, (6R)-17-amino-6-hydroxy-12-[[3-(1-hydroxy-1-methyl-ethyl)phenyl]methyl]-6,15-bis(trifluoromethyl)-19-oxa-3,4,12,18-tetrazatricyclo [12.3.1.12,5] nonadeca-1(18),2,4,14,16-pentaen-13-one] cannot be ordered by EC50: under 500 nM for the first, under 500 nM for the second.

`CC(C)(c1cccc(CN2CCCCC[C@](O)(C(F)(F)F)C3=NN=C(O3)c3nc(c(C(F)(F)F)cc3N)C2=O)c1)C(F)(F)F` [Compound 222, (6R)-17-amino-6-hydroxy-12-[[3-(2,2,2-trifluoro-1,1-dimethyl-ethyl)phenyl]methyl]-6,15-bis(trifluoromethyl)-19-oxa-3,4,12,18-tetrazatricyclo [12.3.1.12,5] nonadeca-1(18),2,4,14,16-pentaen-13-one] and `COc1cc(CN2CCCCC[C@](O)(C(F)(F)F)C3=NN=C(O3)c3nc(c(C(F)(F)F)cc3N)C2=O)ccc1C(F)(F)F` [Compound 230, (6R)-17-amino-6-hydroxy-12-[[3-methoxy-4-(trifluoromethyl)phenyl]methyl]-6,15-bis(trifluoromethyl)-19-oxa-3,4,12,18-tetrazatricyclo [12.3.1.12,5] nonadeca-1(18),2,4,14,16-pentaen-13-one] cannot be ordered by EC50: under 500 nM for the first, under 500 nM for the second.

`Nc1cc(C(F)(F)F)c2nc1-c1nnc(o1)[C@@](O)(C(F)(F)F)CCCCCN(Cc1cccc(OCC3(C(F)(F)F)CC3)c1)C2=O` [Compound 223, (6R)-17-amino-6-hydroxy-6,15-bis(trifluoromethyl)-12-[[3-[[1-(trifluoromethyl)cyclopropyl]methoxy]phenyl]methyl]-19-oxa-3,4,12,18-tetrazatricyclo [12.3.1.12,5] nonadeca-1(18),2,4,14,16-pentaen-13-one] and `Nc1cc(C(F)(F)F)c2nc1-c1nnc(o1)[C@@](O)(C(F)(F)F)CCCCCN(Cc1cccc(OC(F)F)c1)C2=O` [Compound 254, (6R)-17-amino-12-[[3-(difluoromethoxy)phenyl]methyl]-6-hydroxy-6,15-bis(trifluoromethyl)-19-oxa-3,4,12,18-tetrazatricyclo [12.3.1.12,5] nonadeca-1(18),2,4,14,16-pentaen-13-one] cannot be ordered by EC50: under 500 nM for the first, under 500 nM for the second.

`Nc1cc(C(F)(F)F)c2nc1-c1nnc(o1)[C@@](O)(C(F)(F)F)CCCCCN(Cc1cccc(C3CC(F)(F)C3)c1)C2=O` [Compound 224, (6R)-17-amino-12-[[3-(3,3-difluorocyclobutyl)phenyl]methyl]-6-hydroxy-6,15-bis(trifluoromethyl)-19-oxa-3,4,12,18-tetrazatricyclo [12.3.1.12,5] nonadeca-1(18),2,4,14,16-pentaen-13-one] and `Nc1cc(C(F)(F)F)c2nc1-c1nnc(o1)[C@@](O)(C(F)(F)F)CCCCCN(Cc1cccc(C3CC3)c1)C2=O` [Compound 231, (6R)-17-amino-12-[(3-cyclopropylphenyl)methyl]-6-hydroxy-6,15-bis(trifluoromethyl)-19-oxa-3,4,12,18-tetrazatricyclo [12.3.1.12,5] nonadeca-1(18),2,4,14,16-pentaen-13-one] cannot be ordered by EC50: under 500 nM for the first, under 500 nM for the second.

`Cc1cc(C)cc(CN2CCCCC[C@](O)(C(F)(F)F)C3=NN=C(O3)c3nc(c(C(F)(F)F)cc3N)C2=O)c1` [Compound 225, (6R)-17-amino-12-[(3,5-dimethylphenyl)methyl]-6-hydroxy-6,15-bis(trifluoromethyl)-19-oxa-3,4,12,18-tetrazatricyclo [12.3.1.12,5] nonadeca-1(18),2,4,14,16-pentaen-13-one] and `CC(C)(C)C1(N2CCCCC[C@](O)(C(F)(F)F)C3=NN=C(O3)c3nc(c(C(F)(F)F)cc3N)C2=O)CC1` [Compound 226, (6R)-17-amino-12-(1-tert-butylcyclopropyl)-6-hydroxy-6,15-bis(trifluoromethyl)-19-oxa-3,4,12,18-tetrazatricyclo [12.3.1.12,5] nonadeca-1(18),2,4,14,16-pentaen-13-one] cannot be ordered by EC50: under 500 nM for the first, under 500 nM for the second.

`Nc1cc(C(F)(F)F)c2nc1-c1nnc(o1)[C@@](O)(C(F)(F)F)CCCCCN(Cc1cccc(C3CCC3)c1)C2=O` [Compound 229, (6R)-17-amino-12-[(3-cyclobutylphenyl)methyl]-6-hydroxy-6,15-bis(trifluoromethyl)-19-oxa-3,4,12,18-tetrazatricyclo [12.3.1.12,5] nonadeca-1(18),2,4,14,16-pentaen-13-one] and `Nc1cc(C(F)(F)F)c2nc1-c1nnc(o1)[C@@](O)(C(F)(F)F)CCCCCN(Cc1cc(F)cc(C3CCC3)c1)C2=O` [Compound 248, (6R)-17-amino-12-[(3-cyclobutyl-5-fluoro-phenyl)methyl]-6-hydroxy-6,15-bis(trifluoromethyl)-19-oxa-3,4,12,18-tetrazatricyclo [12.3.1.12,5] nonadeca-1(18),2,4,14,16-pentaen-13-one] cannot be ordered by EC50: under 500 nM for the first, under 500 nM for the second.

`Nc1cc(C(F)(F)F)c2nc1-c1nnc(o1)[C@@](O)(C(F)(F)F)CCCCCN(Cc1cccc(C34CC(C3)C4)c1)C2=O` [Compound 240] and `Nc1cc(C(F)(F)F)c2nc1-c1nnc(o1)[C@@](O)(C(F)(F)F)CCCCCN(Cc1cccc(C(F)F)c1)C2=O` [Compound 241, (6R)-17-amino-12-[[3-(difluoromethyl)phenyl]methyl]-6-hydroxy-6,15-bis(trifluoromethyl)-19-oxa-3,4,12,18-tetrazatricyclo [12.3.1.12,5] nonadeca-1(18),2,4,14,16-pentaen-13-one] cannot be ordered by EC50: under 500 nM for the first, under 500 nM for the second.

`Nc1cc(C(F)(F)F)c2nc1-c1nnc(o1)[C@@](O)(C(F)(F)F)CCCCCN(CC1CCC(F)(F)CC1)C2=O` [Compound 242, (6R)-17-amino-12-[(4,4-difluorocyclohexyl)methyl]-6-hydroxy-6,15-bis(trifluoromethyl)-19-oxa-3,4,12,18-tetrazatricyclo [12.3.1.12,5] nonadeca-1(18),2,4,14,16-pentaen-13-one] and `Nc1cc(C(F)(F)F)c2nc1-c1nnc(o1)[C@@](O)(C(F)(F)F)CCCCCN(CC1CC(F)(F)C1)C2=O` [Compound 243, (6R)-17-amino-12-[(3,3-difluorocyclobutyl)methyl]-6-hydroxy-6,15-bis(trifluoromethyl)-19-oxa-3,4,12,18-tetrazatricyclo [12.3.1.12,5] nonadeca-1(18),2,4,14,16-pentaen-13-one] cannot be ordered by EC50: under 500 nM for the first, under 500 nM for the second.

`Nc1cc(C(F)(F)F)c2nc1-c1nnc(o1)[C@@](O)(C(F)(F)F)CCCCCN(CC1C3(CC3)C13CC3)C2=O` [Compound 245, (6R)-17-amino-12-(dispiro[2.0.24.13]heptan-7-ylmethyl)-6-hydroxy-6,15-bis(trifluoromethyl)-19-oxa-3,4,12,18-tetrazatricyclo [12.3.1.12,5] nonadeca-1(18),2,4,14,16-pentaen-13-one] and `Nc1cc(C(F)(F)F)c2nc1-c1nnc(o1)[C@@](O)(C(F)(F)F)CCCCCN(CC1CC13CC3)C2=O` (stereo partly drawn) [Compound 252, (6R)-17-amino-6-hydroxy-12-(spiro[2.2]pentan-2-ylmethyl)-6,15-bis(trifluoromethyl)-19-oxa-3,4,12,18-tetrazatricyclo [12.3.1.12,5] nonadeca-1(18),2,4,14,16-pentaen-13-one] cannot be ordered by EC50: under 500 nM for the first, under 500 nM for the second.

Going from `Nc1cc(C(F)(F)F)c2nc1-c1nnc(o1)[C@@](O)(C(F)(F)F)CCCCCN(CC1C3CCCCC31)C2=O` (stereo partly drawn) [Compound 246, (6R)-17-amino-6-hydroxy-12-(norcaran-7-ylmethyl)-6,15-bis(trifluoromethyl)-19-oxa-3,4,12,18-tetrazatricyclo [12.3.1.12,5] nonadeca-1(18),2,4,14,16-pentaen-13-one] to `Nc1cc(C(F)(F)F)c2nc1-c1nnc(o1)[C@@](O)(C(F)(F)F)CCCCCN(CC(C1CC1)C1CC1)C2=O` [Compound 251, (6R)-17-amino-12-(2,2-dicyclopropylethyl)-6-hydroxy-6,15-bis(trifluoromethyl)-19-oxa-3,4,12,18-tetrazatricyclo [12.3.1.12,5] nonadeca-1(18),2,4,14,16-pentaen-13-one], the EC50 rises from under 500 nM to over 1000 nM. The first is the more potent here.

`Nc1cc(C(F)(F)F)c2nc1-c1nnc(o1)[C@@](O)(C(F)(F)F)CCCCCN(Cc1cc(F)cc(C3CC3)c1)C2=O` [Compound 247, (6R)-17-amino-12-[(3-cyclopropyl-5-fluoro-phenyl)methyl]-6-hydroxy-6,15-bis(trifluoromethyl)-19-oxa-3,4,12,18-tetrazatricyclo [12.3.1.12,5] nonadeca-1(18),2,4,14,16-pentaen-13-one] and `Nc1cc(C(F)(F)F)c2nc1-c1nnc(o1)[C@@](O)(C(F)(F)F)CCCCCN(Cc1ccc(F)c(C3CC3)c1)C2=O` [Compound 255, (6R)-17-amino-12-[(3-cyclopropyl-4-fluoro-phenyl)methyl]-6-hydroxy-6,15-bis(trifluoromethyl)-19-oxa-3,4,12,18-tetrazatricyclo [12.3.1.12,5] nonadeca-1(18),2,4,14,16-pentaen-13-one] cannot be ordered by EC50: under 500 nM for the first, under 500 nM for the second.

`Nc1cc(C(F)(F)F)c2nc1-c1nnc(o1)[C@@](O)(C(F)(F)F)CCCCCN(C1(C3CC3)CC1)C2=O` [Compound 253, (6R)-17-amino-12-(1-cyclopropylcyclo-propyl)-6-hydroxy-6,15-bis(trifluoromethyl)-19-oxa-3,4,12,18-tetrazatricyclo [12.3.1.12,5] nonadeca-1(18),2,4,14,16-pentaen-13-one] showed an EC50 of under 500 nM.
